The numbers were not newly measured in US10752566B2, “Solvent compositions for use as replacements for slow evaporating solvents” (TBF ENVIRONMENTAL TECHNOLOGY INC., priority 2015, dated 2020), which cites them from elsewhere.

The conditions of this data set: PCBTF.

Structures are written as SMILES.

Take `FC(F)(F)c1ccc(Cl)cc1` [PCBTF, para-Chlorobenzotrifluoride]: the specific gravity is listed as 1.34.
